Assay [1] deals with T1, Phosphatidylinositol 4,5-bisphosphate 3-kinase catalytic subunit delta isoform (Homo sapiens, UniProt O00329).
T1 sequence (O00329 whole entry): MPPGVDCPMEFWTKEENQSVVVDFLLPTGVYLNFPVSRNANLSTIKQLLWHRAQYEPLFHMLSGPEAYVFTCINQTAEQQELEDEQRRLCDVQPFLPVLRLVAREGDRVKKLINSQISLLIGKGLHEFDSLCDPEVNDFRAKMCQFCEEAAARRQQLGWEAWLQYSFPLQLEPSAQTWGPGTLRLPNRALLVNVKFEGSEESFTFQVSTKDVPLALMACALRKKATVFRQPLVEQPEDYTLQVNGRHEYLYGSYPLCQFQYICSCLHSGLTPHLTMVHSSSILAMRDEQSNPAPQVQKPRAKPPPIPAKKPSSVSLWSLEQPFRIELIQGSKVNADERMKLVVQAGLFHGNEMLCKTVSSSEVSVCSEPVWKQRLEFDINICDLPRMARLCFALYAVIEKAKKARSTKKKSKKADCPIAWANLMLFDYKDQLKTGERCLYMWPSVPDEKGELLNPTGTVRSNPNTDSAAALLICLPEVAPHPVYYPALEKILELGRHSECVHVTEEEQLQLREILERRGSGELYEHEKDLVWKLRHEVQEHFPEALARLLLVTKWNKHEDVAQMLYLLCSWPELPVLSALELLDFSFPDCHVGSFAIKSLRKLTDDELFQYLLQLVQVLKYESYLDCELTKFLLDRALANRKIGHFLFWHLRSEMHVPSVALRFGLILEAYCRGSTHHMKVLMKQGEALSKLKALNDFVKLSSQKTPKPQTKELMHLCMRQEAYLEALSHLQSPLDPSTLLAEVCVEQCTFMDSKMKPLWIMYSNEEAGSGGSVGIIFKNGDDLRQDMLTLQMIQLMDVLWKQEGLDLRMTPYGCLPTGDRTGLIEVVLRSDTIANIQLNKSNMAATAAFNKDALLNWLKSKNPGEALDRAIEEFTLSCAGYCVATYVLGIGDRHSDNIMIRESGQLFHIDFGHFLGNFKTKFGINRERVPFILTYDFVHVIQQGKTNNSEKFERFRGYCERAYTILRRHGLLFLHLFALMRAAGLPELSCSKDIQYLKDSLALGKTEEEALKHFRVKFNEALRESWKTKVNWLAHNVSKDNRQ
Kind of assay: Inhibition of PI3Kdelta (unknown origin) using PIP2 as substrate in presence of ATP measured after 60 mins by ADP-Glo assay. On the technique in general: ADP-Glo first removes unused ATP, then detects ADP through luciferase.

For assay [2], the target named is Phosphatidylinositol 4,5-bisphosphate 3-kinase catalytic subunit gamma isoform (Homo sapiens, UniProt P48736). Kind of assay: Inhibition of PI3Kgamma (unknown origin) using PIP2 as substrate in presence of ATP measured after 60 mins by ADP-Glo assay.
Sequence of Phosphatidylinositol 4,5-bisphosphate 3-kinase catalytic subunit gamma isoform (P48736 whole entry, canonical isoform): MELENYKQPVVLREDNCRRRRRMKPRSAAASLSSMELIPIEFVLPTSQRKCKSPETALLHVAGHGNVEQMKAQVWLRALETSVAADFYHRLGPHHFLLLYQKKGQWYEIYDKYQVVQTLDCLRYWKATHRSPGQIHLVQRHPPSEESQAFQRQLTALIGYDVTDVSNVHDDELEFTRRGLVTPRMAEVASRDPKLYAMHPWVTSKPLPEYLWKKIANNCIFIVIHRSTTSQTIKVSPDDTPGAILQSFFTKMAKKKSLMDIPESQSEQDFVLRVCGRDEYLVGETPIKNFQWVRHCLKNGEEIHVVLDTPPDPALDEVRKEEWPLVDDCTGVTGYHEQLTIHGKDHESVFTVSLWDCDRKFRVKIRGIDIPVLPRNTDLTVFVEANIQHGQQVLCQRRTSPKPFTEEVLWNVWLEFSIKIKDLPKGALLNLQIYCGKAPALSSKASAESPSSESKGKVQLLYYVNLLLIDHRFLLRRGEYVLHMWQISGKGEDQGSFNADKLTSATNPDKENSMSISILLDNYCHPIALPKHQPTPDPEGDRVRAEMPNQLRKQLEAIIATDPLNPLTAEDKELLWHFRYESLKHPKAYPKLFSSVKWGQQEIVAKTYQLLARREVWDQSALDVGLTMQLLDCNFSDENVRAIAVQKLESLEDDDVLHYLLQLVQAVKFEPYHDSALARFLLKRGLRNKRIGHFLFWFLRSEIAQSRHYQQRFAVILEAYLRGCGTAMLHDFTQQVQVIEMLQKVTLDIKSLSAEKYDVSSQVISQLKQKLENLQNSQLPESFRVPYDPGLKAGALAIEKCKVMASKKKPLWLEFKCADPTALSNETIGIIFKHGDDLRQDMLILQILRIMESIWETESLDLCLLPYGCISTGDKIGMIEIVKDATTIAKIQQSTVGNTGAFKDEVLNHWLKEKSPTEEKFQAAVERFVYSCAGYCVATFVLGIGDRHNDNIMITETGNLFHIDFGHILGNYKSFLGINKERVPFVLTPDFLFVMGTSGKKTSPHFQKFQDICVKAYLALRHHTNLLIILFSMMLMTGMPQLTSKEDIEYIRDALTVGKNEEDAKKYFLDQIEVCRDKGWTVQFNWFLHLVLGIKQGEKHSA
The target of assay [3] is Phosphatidylinositol 4,5-bisphosphate 3-kinase catalytic subunit alpha isoform (Homo sapiens, UniProt P42336). Kind of assay: Inhibition of PI3Kalpha (unknown origin) using PIP2 as substrate in presence of ATP measured after 60 mins by ADP-Glo assay.
Sequence of Phosphatidylinositol 4,5-bisphosphate 3-kinase catalytic subunit alpha isoform (P42336 whole entry, canonical isoform): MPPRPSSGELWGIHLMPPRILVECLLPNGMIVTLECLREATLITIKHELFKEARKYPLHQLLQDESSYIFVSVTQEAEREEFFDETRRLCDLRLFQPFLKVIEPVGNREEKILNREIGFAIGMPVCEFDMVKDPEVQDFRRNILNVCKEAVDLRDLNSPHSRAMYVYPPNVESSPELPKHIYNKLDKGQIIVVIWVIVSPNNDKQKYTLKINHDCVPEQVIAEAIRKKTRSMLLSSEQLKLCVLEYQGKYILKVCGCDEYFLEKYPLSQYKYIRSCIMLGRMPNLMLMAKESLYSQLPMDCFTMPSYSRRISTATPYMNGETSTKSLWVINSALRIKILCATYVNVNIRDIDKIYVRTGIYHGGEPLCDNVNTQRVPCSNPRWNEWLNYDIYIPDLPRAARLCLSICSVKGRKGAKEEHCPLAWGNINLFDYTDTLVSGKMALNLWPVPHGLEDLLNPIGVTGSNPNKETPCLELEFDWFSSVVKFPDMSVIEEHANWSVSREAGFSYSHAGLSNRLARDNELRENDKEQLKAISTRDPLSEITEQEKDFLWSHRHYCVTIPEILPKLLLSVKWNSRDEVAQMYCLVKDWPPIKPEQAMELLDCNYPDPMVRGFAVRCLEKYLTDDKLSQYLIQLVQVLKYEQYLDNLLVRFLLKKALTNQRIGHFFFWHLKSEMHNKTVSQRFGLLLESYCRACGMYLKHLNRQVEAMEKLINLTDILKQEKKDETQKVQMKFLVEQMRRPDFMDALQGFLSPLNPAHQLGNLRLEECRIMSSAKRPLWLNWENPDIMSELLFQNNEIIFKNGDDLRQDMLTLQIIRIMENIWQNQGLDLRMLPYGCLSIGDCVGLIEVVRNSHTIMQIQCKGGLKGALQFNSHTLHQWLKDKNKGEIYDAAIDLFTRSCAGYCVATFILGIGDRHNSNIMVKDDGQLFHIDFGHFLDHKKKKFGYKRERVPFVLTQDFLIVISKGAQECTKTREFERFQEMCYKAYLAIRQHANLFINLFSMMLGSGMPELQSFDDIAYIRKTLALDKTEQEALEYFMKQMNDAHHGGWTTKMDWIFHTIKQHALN
For assay [4], the target named is Phosphatidylinositol 4,5-bisphosphate 3-kinase catalytic subunit beta isoform (Homo sapiens, UniProt P42338). Put plainly: Inhibition of PI3Kbeta (unknown origin) using PIP2 as substrate in presence of ATP measured after 60 mins by ADP-Glo assay.
Sequence of Phosphatidylinositol 4,5-bisphosphate 3-kinase catalytic subunit beta isoform (P42338 whole entry, canonical isoform): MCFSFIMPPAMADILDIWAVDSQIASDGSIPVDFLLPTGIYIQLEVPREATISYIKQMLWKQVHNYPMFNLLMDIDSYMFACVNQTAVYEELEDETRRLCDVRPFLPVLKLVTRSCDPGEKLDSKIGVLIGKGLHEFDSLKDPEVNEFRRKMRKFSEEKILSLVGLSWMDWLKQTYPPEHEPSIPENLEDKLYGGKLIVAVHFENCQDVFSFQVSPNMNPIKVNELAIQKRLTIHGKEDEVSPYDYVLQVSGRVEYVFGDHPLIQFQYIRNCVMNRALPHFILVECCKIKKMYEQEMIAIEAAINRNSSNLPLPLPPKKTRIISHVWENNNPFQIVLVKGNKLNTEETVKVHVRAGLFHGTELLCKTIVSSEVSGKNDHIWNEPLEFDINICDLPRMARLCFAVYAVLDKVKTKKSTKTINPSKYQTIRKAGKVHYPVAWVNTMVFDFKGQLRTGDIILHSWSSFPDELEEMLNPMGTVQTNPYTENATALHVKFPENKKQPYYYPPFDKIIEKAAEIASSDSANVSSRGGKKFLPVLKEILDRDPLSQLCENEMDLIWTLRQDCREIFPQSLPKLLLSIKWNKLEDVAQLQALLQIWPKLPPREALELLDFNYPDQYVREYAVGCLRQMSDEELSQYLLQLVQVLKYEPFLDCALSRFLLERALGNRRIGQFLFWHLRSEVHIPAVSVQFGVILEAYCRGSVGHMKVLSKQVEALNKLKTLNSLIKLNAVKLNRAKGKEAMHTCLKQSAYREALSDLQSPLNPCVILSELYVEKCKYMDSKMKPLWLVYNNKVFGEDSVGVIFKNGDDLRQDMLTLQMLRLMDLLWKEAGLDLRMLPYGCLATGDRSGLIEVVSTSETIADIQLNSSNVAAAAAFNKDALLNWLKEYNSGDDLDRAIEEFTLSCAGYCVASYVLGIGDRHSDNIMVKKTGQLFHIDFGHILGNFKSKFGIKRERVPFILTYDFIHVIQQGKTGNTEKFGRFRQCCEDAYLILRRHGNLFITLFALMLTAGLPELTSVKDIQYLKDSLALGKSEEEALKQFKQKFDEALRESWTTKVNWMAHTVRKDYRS
A short description of assay [5]: Induction of cell cycle arrest in human MOLM16 cells assessed as accumulation at subG1 phase at 1 uM incubated for 24 hrs by propidium iodide /RNase staining based flow cytometry(Rvb =4.02 %). The assay is classed as functional, MOLM-16.
Assay [6] can be described thus: Induction of apoptosis in human MOLM16 cells assessed as necrotic cells at 1 uM incubated for 48 hrs by Annexin V and propidium iodide Staining based assay (reference value: 0.44 %). Format: functional, MOLM-16.
A short description of assay [7]: Induction of cell cycle arrest in human MOLM16 cells assessed as accumulation at G1 phase at 1 uM incubated for 24 hrs by propidium iodide /RNase staining based flow cytometry(Rvb =46.8 %). Format: functional, MOLM-16. A general note: A flow cytometer gives signals particle by particle.
Assay [8] in a line: Induction of apoptosis in human MOLM16 cells assessed as late apoptotic cells at 2 uM incubated for 48 hrs by Annexin V and propidium iodide Staining based assay (reference value: 6.77 %). Format: functional, MOLM-16.
Assay [9] in a line: Induction of cell cycle arrest in human MOLM16 cells assessed as accumulation at G1 phase at 5 uM incubated for 24 hrs by propidium iodide /RNase staining based flow cytometry(Rvb =46.8 %). Format: functional, MOLM-16.
The nature of assay [10]: Induction of apoptosis in human MOLM16 cells assessed as viable cells at 1 uM incubated for 48 hrs by Annexin V and propidium iodide Staining based assay (reference value: 76.3 %). Format: functional, MOLM-16. As to conditions: read-out: Activity.
Assay [11] is described as follows: Induction of cell cycle arrest in human MOLM16 cells assessed as accumulation at G1 phase at 2 uM incubated for 24 hrs by propidium iodide /RNase staining based flow cytometry(Rvb =46.8 %). Format: functional, MOLM-16.
Assay [12] can be described thus: Induction of cell cycle arrest in human MOLM16 cells assessed as accumulation at G2 phase at 1 uM incubated for 24 hrs by propidium iodide /RNase staining based flow cytometry(Rvb =14.7 %). The assay is classed as functional, MOLM-16.
Assay [13] in a line: Induction of apoptosis in human MOLM16 cells assessed as viable cells at 5 uM incubated for 48 hrs by Annexin V and propidium iodide Staining based assay (reference value: 76.3 %). As to conditions: read-out: Activity. The assay is classed as functional, MOLM-16.
Assay [14] is described as follows: Induction of apoptosis in human MOLM16 cells assessed as late apoptotic cells at 1 uM incubated for 48 hrs by Annexin V and propidium iodide Staining based assay (reference value: 6.77 %). The assay is classed as functional, MOLM-16.
A short description of assay [15]: Induction of cell cycle arrest in human MOLM16 cells assessed as accumulation at S phase at 5 uM incubated for 24 hrs by propidium iodide /RNase staining based flow cytometry(Rvb =31.8 %). Format: functional, MOLM-16.
A short description of assay [16]: Induction of apoptosis in human MOLM16 cells assessed as necrotic cells at 5 uM incubated for 48 hrs by Annexin V and propidium iodide Staining based assay (reference value: 0.44 %). Format: functional, MOLM-16.
A short description of assay [17]: Induction of cell cycle arrest in human MOLM16 cells assessed as accumulation at S phase at 2 uM incubated for 24 hrs by propidium iodide /RNase staining based flow cytometry(Rvb =31.8 %). The assay is classed as functional, MOLM-16.
Assay [18] is described as follows: Induction of cell cycle arrest in human MOLM16 cells assessed as accumulation at S phase at 1 uM incubated for 24 hrs by propidium iodide /RNase staining based flow cytometry(Rvb =31.8 %). The assay is classed as functional, MOLM-16.
Assay [19] in a line: Induction of apoptosis in human MOLM16 cells assessed as early apoptotic cells at 1 uM incubated for 48 hrs by Annexin V and propidium iodide Staining based assay (reference value: 16.4 %). Format: functional, MOLM-16.
Assay [20] is described as follows: Induction of cell cycle arrest in human MOLM16 cells assessed as accumulation at G2 phase at 2 uM incubated for 24 hrs by propidium iodide /RNase staining based flow cytometry(Rvb =14.7 %). Format: functional, MOLM-16.
Assay [21] is described as follows: Induction of apoptosis in human MOLM16 cells assessed as necrotic cells at 2 uM incubated for 48 hrs by Annexin V and propidium iodide Staining based assay (reference value: 0.44 %). The assay is classed as functional, MOLM-16.
The nature of assay [22]: Induction of apoptosis in human MOLM16 cells assessed as early apoptotic cells at 5 uM incubated for 48 hrs by Annexin V and propidium iodide Staining based assay (reference value: 16.4 %). Format: functional, MOLM-16.
Assay [23] in a line: Induction of apoptosis in human MOLM16 cells assessed as early apoptotic cells at 2 uM incubated for 48 hrs by Annexin V and propidium iodide Staining based assay (reference value: 16.4 %). Format: functional, MOLM-16.
The nature of assay [24]: Induction of apoptosis in human MOLM16 cells assessed as viable cells at 2 uM incubated for 48 hrs by Annexin V and propidium iodide Staining based assay (reference value: 76.3 %). Format: functional, MOLM-16. As to conditions: read-out: Activity.
Assay [25] can be described thus: Induction of apoptosis in human MOLM16 cells assessed as late apoptotic cells at 5 uM incubated for 48 hrs by Annexin V and propidium iodide Staining based assay (reference value: 6.77 %). Format: functional, MOLM-16.
The nature of assay [26]: Induction of cell cycle arrest in human MOLM16 cells assessed as accumulation at subG1 phase at 5 uM incubated for 24 hrs by propidium iodide /RNase staining based flow cytometry(Rvb =4.02 %). Format: functional, MOLM-16.
A short description of assay [27]: Induction of cell cycle arrest in human MOLM16 cells assessed as accumulation at subG1 phase at 2 uM incubated for 24 hrs by propidium iodide /RNase staining based flow cytometry(Rvb =4.02 %). The assay is classed as functional, MOLM-16.
A short description of assay [28]: Induction of cell cycle arrest in human MOLM16 cells assessed as accumulation at G2 phase at 5 uM incubated for 24 hrs by propidium iodide /RNase staining based flow cytometry(Rvb =14.7 %). Format: functional, MOLM-16.

The record followed here is ChEMBL document CHEMBL4840313, “Bioisosteric replacements of the indole moiety for the development of a potent and selective PI3Kδ inhibitor: Design, synthesis and biological evaluation” (Eur J Med Chem, 2021).

Usually pIC50 stands for the negative decadic logarithm of the IC50, by convention in mol/L.

pIC50: −log10 of the molar value.

Consider `O=S(=O)(Nc1cc(-c2ccc3[nH]cnc3c2)cnc1Cl)c1ccccc1`, for which the negative logarithm of the IC50 (pIC50) in assay [1] was 7.55.

On to `O=S(=O)(Nc1cc(-c2cnc3[nH]ccc3n2)cnc1Cl)c1ccccc1`, for which the pIC50 is 7.24 in assay [2], 7.31 in assay [1], 7.23 in assay [3] and 7.10 in assay [4].

On to `O=S(=O)(Nc1cc(-c2ccc3[nH]ccc3n2)cnc1Cl)c1ccccc1`, for which the pIC50 in assay [1] was 5.51.

As for `O=S(=O)(Nc1cc(-c2cnc3occc3c2)cnc1Cl)c1ccccc1`, in assay [1], the pIC50 was 6.68.

As for `O=S(=O)(Nc1cc(-c2ccc3[nH]ncc3n2)cnc1Cl)c1ccccc1`, the pIC50 in assay [1] is 6.53.

With `O=S(=O)(Nc1cc(-c2ccc3occc3c2)cnc1Cl)c1ccccc1`, in [1], the pIC50 is 7.77.

`O=S(=O)(Nc1cc(-c2ccc3[nH]ccc3c2)cnc1Cl)c1ccccc1`: the pIC50 in [1] was 6.48.

As for `O=S(=O)(Nc1cc(-c2cnc3c(c2)CCN3)cnc1Cl)c1ccccc1`, the pIC50 in assay [1] was 6.91.

Take `O=S(=O)(Nc1cc(-c2cc3cn[nH]c3cn2)cnc1Cl)c1ccccc1`: in assay [1], the pIC50 is 6.28.

As for `O=S(=O)(Nc1cc(-c2cnc3scnc3c2)cnc1Cl)c1ccccc1`, the pIC50 in assay [1] is 6.69.

For `O=S(=O)(Nc1cc(-c2ccc3c(c2)CCN3)cnc1Cl)c1ccccc1`, the pIC50 in assay [1] is 6.31.

With `CC[C@H](Nc1ncnc2[nH]cnc12)c1nc2cccc(F)c2c(=O)n1-c1ccccc1` [IDELALISIB], the Activity was 3.44% in assay [5]; 1.14% in [6]; 47.9% in [7]; 10.1% in assay [8]; 49.6% in [9]; 48.4% in assay [11]. In addition, the Activity came to 13.9% in assay [12]; 7.95% in assay [14]; 32.8% in [15]; 1.49% in [16]; 32.9% in assay [17]; 31.7% in assay [18]. Moreover, the Activity in assay [19] worked out at 13.9%; in assay [20] it was 12.4%; in assay [21], 0.5%; in assay [22] it was 14.8%; in assay [23], 18.2%; in assay [25], 9.19%. Also, the Activity in assay [26] stood at 2.6%; in [27], 5.71%; in [28], 13.6%. For the same molecule, in assay [10], the viability at 1 µM was 77%. In addition, the viability at 5 µM in [13] worked out at 74.6%. Further, the viability at 2 µM in [24] came to 73.2%.

With `O=S(=O)(Nc1cc(-c2ccc3scnc3c2)cnc1Cl)c1ccccc1`, the pIC50 in [1] is 6.22.

As to `O=S(=O)(Nc1cc(-c2ccc3sccc3c2)cnc1Cl)c1ccccc1`, in assay [1], the pIC50 was 6.07.

Regarding `O=S(=O)(Nc1cc(-c2ccc3ocnc3c2)cnc1Cl)c1ccccc1`, in [1], the pIC50 is 7.43.

Consider `O=S(=O)(Nc1cc(-c2cnc3[nH]cnc3c2)cnc1Cl)c1ccccc1`, for which the pIC50 in assay [2] was 7.68; in assay [1], 7.80; in assay [3] it was 7.55; in [4], 7.59.

For `O=S(=O)(Nc1cc(-c2cc3cc[nH]c3cn2)cnc1Cl)c1ccccc1`, the pIC50 in [1] is 5.88.

For the molecule `O=S(=O)(Nc1cc(-c2ccc3[nH]ncc3c2)cnc1Cl)c1ccccc1`, the pIC50 in assay [1] was 7.44.

Consider `O=S(=O)(Nc1cc(-c2ccc3[nH]nnc3c2)cnc1Cl)c1ccccc1`, for which the pIC50 in assay [1] was 7.82.
